From patent US20140227174A1, “SKIN PERMEATING AND CELL ENTERING (SPACE) PEPTIDES AND METHODS OF USE THEREFOR” (CONVOY THERAPEUTICS, priority 2013, published 2014)
Residues, ends and D or L forms follow the SMILES beside them.

Experiments:
Format in all cases: in vitro ADME
Full thickness pig skin [1] = assay: In vitro delivery of siRNA to skin in Franz diffusion cells; conditions: 100 microliters of 25 nmole/ml; area of 2 sq. cm; 24 hours
Description: Full thickness pig skin (Lampire Biological Laboratories, Pipersville, Pa.) was used. The skin was stored at −80° C. and defrosted immediately prior to use. Briefly, the skin was allowed to thaw with the stratum corneum side up left open to the atmosphere for at least half hour. Skin disks of 36 mm were punched out. The subcutaneous fatty tissue was carefully removed from the dermis, and the hair shaft was cut off to no more than 4 mm. The skin piece was cleaned with PBS (pH 7.4). […]
In vitro skin penetration and deposition experiments of different formulations were run in Franz diffusion cells occlusively and maintained at 37±1° C. throughout the experiments. […] At the end of an experiment, a sample of 1 ml was withdrawn from the receptor phase for concentration measurement by fluorescence assay using a micro-plate reader (SAFIRE, XFLUOR4, V4.50, Tecan Group Ltd, NY, US). […]
The stratum corneum was removed by striping with an adhesive tape (SCOTCH® Transparent Tape, 3M Corporate, St. Paul, Minn.). […] The supernatant were withdrawn, diluted if necessary and analyzed by fluorescence measurement.
The concentrations of FAM-GAPDH-siRNA and FAM-GAPDH-siRNA-SPACE-Peptide conjugates were determined by fluorescence spectroscopy. Fluorescence detection was performed at an excitation of 495 nm and an emission of 525 nm for both conjugates. […]

EPIDERM™ tissue = assay: Penetration of SPACE Peptide formulations across EPIDERM tissue; conditions: 100 μl on 2 cm^2, 24 hours
Description: Additional experiments performed using EPIDERM™ tissue confirmed penetration of SPACE Peptide across the skin. For this purpose, the SPACE Peptide formulations were prepared using the methods described herein above. EPIDERM™ tissues were obtained from MatTek Corporation (Ashland, Mass.). […] A 100 microliter formulation applied on EPIDERM™ tissue for 24 hours was determined to deliver 25% of SPACE Peptide across EPIDERM™ tissue.
FIG. 8C is a bar graph showing delivery of a fluorescent label to EPIDERM™ (left column of each pair) and a pig skin model (right column of each pair) using different formulations the contain SPACE Peptides. A 100 μl sample of various formulations was placed on a 2 cm^2 skin sample and penetration was tested 24 hours after application.

Full thickness pig skin [2] = tested on: Full thickness pig skin
Description: Full thickness pig skin (Lampire Biological Laboratories, Pipersville, Pa.) was used. The skin was stored at −80° C. and defrosted immediately prior to use. Briefly, the skin was allowed to thaw with the stratum corneum (SC) side up left open to the atmosphere. Skin disks of 36 mm were punched out. The subcutaneous fatty tissue was carefully removed from the dermis, and the hair shaft was clipped to no more than 4 mm. The skin pieces were cleaned with PBS (pH 7.4). Subsequently, the integrity of the skin disks were checked with a skin conductivity measurement to ensure that samples were free from any surface irregularity such as tiny holes or crevices in the portion that was used for skin penetration and deposition studies.
In vitro skin penetration and deposition experiments of different liposomal systems containing a SPACE Peptide labeled with fluorescein isothiocyanate (FITC-SPACE), CsA, or fluorescent hyaluronidase (Fluorescein-HA) were run in Franz diffusion cells occlusively and maintained at 37±1° C. throughout experiments using an oven. The effective penetration area and receptor cell volume were 1.77 cm^2 and 12.0 ml, respectively. The acceptor compartment was filled with PBS pH 7.4 as the receptor medium. Each test formulation was investigated in triplicate. Skin disks were mounted with the SC side up and the donor compartment left dry and open to atmosphere for 0.5 hour before test formulation application. Caution was taken to remove all air bubbles between the underside of the skin (dermis) and the acceptor solution. The skin was stretched in all directions to avoid the presence of furrows.
100-200 μL of the test formulation was applied to skin surface using a pipette. The experiments were carried out under occlusion with light protection. The incubation time of the skin with each test formulation was 24 hours. At the end of an experiment, a sample of 1-3 mL was withdrawn from the receptor phase for concentration measurement by fluorescence assay using a micro-plate reader (SAFIRE, XFLUOR4, V4.50, Tecan Group Ltd, NY, United States of America) for fluorescence. In the case of CsA experiments, a sample of 3 ml was withdrawn from the receptor phase for ^3H-CsA measurement by a liquid scintillation counter (TRI-GARB 2100TR, Packard Instrument Company, Downers Grove, Ill.). The formulations were removed from the skin by washing five times with PBS (pH 7.4). After cleaning, the skin was transferred onto a device for tape-stripping the SC.
The stratum corneum was removed by striping with an adhesive tape (SCOTCH® Transparent Tape, 3M Corporate, St. Paul, Minn.). In order to avoid any furrows, which could be a reason for false results of the stripping procedure, the skin was stretched and mounted on cork discs as mentioned previously. The skin was covered with a TEFLON® mask with a central hole of 15 mm in diameter. Adhesive tape was put onto the skin and a weight of 2 kg was placed on the tape for 10 seconds. The tape was rapidly removed with forceps and transferred into a glass vial of suitable size. Ten stripping procedures were performed consecutively. For analytical reasons, the stripped tapes were collected in glass vials according the following scheme: vial 1=strip 1st, vial 2=strip 2nd-5th, and vial 3=strip 6th-10th. After tape-stripping, the epidermis sheet was separated from the dermis with a sterile surgical scalpel and cut into small pieces and collected into a glass vial. […]

[3] = tested on: epidermis and dermis from porcine skin; assay: Partitioning of SPACE Peptide into isolated epidermis and dermis; conditions: ratio of concentrations in skin layer and surrounding PBS; aqueous solution of SPACE Peptide; after 24 hours
Description: FIG. 5 is a schematic representation of the measurement of partitioning of SPACE peptide. FITC-SPACE peptide was incubated epidermis-SC and dermis for […] at 37° C. and the amount of SPACE peptide partitioned into the tissue was measured.
In these experiments, epidermis and dermis from porcine skin were isolated and placed in separate vials in an aqueous solution of SPACE Peptide of SEQ ID NO: 13. The amount of SPACE Peptide that partitioned into each skin layer was measured after 24 hours. The ratio of concentrations in skin layers and surrounding PBS was used to determine the partition coefficient.

## 5′-FAM-GACGUAAACGGCCACAAGUUC-3′ [siRNA aqueous solution]
Full thickness pig skin [1]
  penetration of siRNA into skin (applied dose): 3.3%

## C[C@H](NC(=O)CCCCCNC(=S)Nc1ccc2c(c1)C(=O)OC21c2ccc(O)cc2Oc2cc(O)ccc21)C(=O)N[C@H]1CSSC[C@@H](C(=O)NCC(=O)O)NC(=O)[C@H](CCC(N)=O)NC(=O)[C@H](Cc2c[nH]cn2)NC(=O)[C@H](CCC(N)=O)NC(=O)[C@H]([C@@H](C)O)NC(=O)[C@H](CO)NC(=O)CNC(=O)[C@H]([C@@H](C)O)NC1=O [FITC-SPACE] (HELM PEPTIDE1{[O=C1OC2(c3ccc(O)cc3Oc3cc(O)ccc32)c2ccc(NC(=S)[*:2])cc21].[O=C(CCCCCN[*:1])[*:2]].A.C.T.G.S.T.Q.H.Q.C.G}$PEPTIDE1,PEPTIDE1,4:R3-12:R3$$$V2.0; C-terminus assumed)
EPIDERM™ tissue
  penetration into EPIDERM tissue (FIG. 8C): penetrated into the EPIDERM™ tissue

## C[C@H](N)C(=O)N[C@H]1CSSC[C@@H](C(=O)NCC(=O)O)NC(=O)[C@H](CCC(N)=O)NC(=O)[C@H](Cc2c[nH]cn2)NC(=O)[C@H](CCC(N)=O)NC(=O)[C@H]([C@@H](C)O)NC(=O)[C@H](CO)NC(=O)CNC(=O)[C@H]([C@@H](C)O)NC1=O [SPACE Peptide] (HELM PEPTIDE1{A.C.T.G.S.T.Q.H.Q.C.G}$PEPTIDE1,PEPTIDE1,2:R3-10:R3$$$V2.0; N-terminus and C-terminus assumed)
Full thickness pig skin [2]
  penetration of FITC label into skin layers (summary of FIG. 8B): enhanced penetration of FITC-SPACE Peptide formulations
[3]
  partition coefficient in the dermis: 4.3
  partition coefficient in the epidermis: 9.8

## Hyaluronic acid [HA]
Full thickness pig skin [2]
  HA delivery in the epidermis: less than 0.5 microgram per sq. cm
  HA delivery, formulation made at pH 8 versus otherwise identical formulation at pH 4: delivered less HA
  amount of HA in the skin compared with the receiver compartment: significantly higher
  topically-applied HA penetrating into skin: about 17%
